Laboratory results published in patent US8748464B2, “Use of SIRT1 activators or inhibitors to modulate an immune response” (The J. David Gladstone Institutes, priority 2008, dated 2014).

Legend:
[1] = test system: Jurkat T cells; test: IL-2 protein ELISA in supernatant of α-CD3-stimulated Jurkat T cells infected with EF-1α-GFP or EF-1α-Tat-GFP viruses; assay type: cell-based, human; conditions: 16 hrs
Experimental: Lentiviral vectors, which contained the heterologous elongation factor 1α (EF-1α) promoter driving Tat and GFP expression, were generated. High titer viral stocks were produced and used to infect Jurkat T cells. […] Infected cultures were stimulated with antibodies specific for the CD3 receptor and treated with increased concentrations of resveratrol (0.4 μM, 2 μM, and 10 μM), a known SIRT1 activator for 16 hrs. IL-2 protein was measured in the culture supernatant by ELISA assay. Following stimulation with α-CD3 antibody, IL-2 protein was superinduced ˜4-fold by wild type Tat (FIG. 8A). In cells expressing Tat, ˜2300 pg/ml of IL-2 protein was detected in response to α-CD3 treatment, whereas in control cells, only ˜600 pg/ml of IL-2 protein was induced.
The effects of small molecule of SIRT1 ([…]) on T cell hyperactivation in Tat-expressing cells were examined. Jurkat T cells were infected with EF-1α-GFP or EF-1α-Tat-GFP viruses (FIG. 8B). Infected cultures were stimulated with α-CD3 antibody and treated with SRT2183 (0.2, 1, and 5 μM) for 16 hrs.
FIGS. 8A and 8B. Resveratrol and small molecule activator of SIRT1 (SRT2183) suppresses T cell hyperactivation by Tat. (A) IL-2 protein levels measured by ELISA in the supernatant of infected cultures. 24 hrs after infection with EF1α-GFP and EF1α-Tat-GFP viruses, Jurkat T cells were stimulated with α-CD3 antibody in the presence of increased concentrations of resveratrol (0.4, 2, and 10 μM) for 16 hrs. (B) 24 hrs after infection with EF1α-GFP and EF1α-Tat-GFP viruses, Jurkat T cells were stimulated with α-CD3 antibody in the presence of increased concentrations of SRT2183 (0.2, 1, and 5 μM) for 16 hrs. IL-2 protein levels were measured by ELISA in the supernatant of infected cultures.

[2] = test system: FLAG-FoxP3 in 293 T cells; test: Western blot of FLAG-FoxP3 (wild type or mutant) or FLAG-AML1/Runx1 expression in 293 T cells; assay type: cell-based; conditions: for expression of FLAG-AML1/Runx1 / FoxP3 protein expression: Ex-527 50 μM or TSA 400 nM, 16 hours; for FoxP3 protein expression: nicotinamide 5 mM
Experimental: To determine whether the three newly identified acetylated lysine residues regulate FoxP3 stability, mutants were generated in which each of three lysine residues was substituted to arginines (KR), a conservative mutation that preserves the positive charge of the residue.
To investigate the effect of SIRT1 inhibition and the three newly identified acetylation sites on FoxP3 protein stability, wild type and 3KR mutant FoxP3 protein expression was measured after treatment with cycloheximide (CHX), a general inhibitor of protein translation.
(B) Scheme of acetylated lysine residues identified by mass spectrometry using immunoprecipitated FLAG-FoxP3 protein. The murine protein is shown.

[3] = test system: FLAG-FoxP3 in 293 T cells; test: Immunoprecipitation/western blot of acetylated FLAG-FoxP3 or HA-AML1/Runx1 in 293 T cells cotransfected with p300; assay type: cell-based
Source text: FIGS. 10A-D. SIRT1 interacts with FoxP3 and inhibition of SIRT1 deacetylase activity increases acetylation of FoxP3. (A) Communoprecipitation/western blot analysis of FLAG-tagged FoxP3 and HA-tagged SIRT1 after transfection of corresponding expression vectors or empty vector controls into 293T cells. (B) Communoprecipitation assay of SIRT1 and FoxP3 deletion mutants. A schematic summary of the binding of FoxP3 mutants to SIRT1 is shown. The forkhead box (FH) indicates the DNA binding domain ZnF, zinc finger domain; LZ, leucine zipper. […] An expression vector for the p300 acetyltransferase was cotransfected with FoxP3. (D) The same experiment as in (C) using HA-AML1/Runx1. Immunoprecipitations were performed with either anti-FLAG antibody coupled to agarose (α-FLAG agarose) (C) or anti-hemagglutinin antibody coupled to agarose (α-HA agarose) (D) and western blotting with rabbit polyclonal antibody to acetyl-lysine (α-acetyl lysine) (α-AcK), α-FLAG or α-HA antibodies.

[4] = test system: naïve CD4+ T cells undergoing differentiation into iTreg cells; test: Intracellular flow cytometry of FoxP3 in naïve CD4+ T cells differentiating into iTreg cells; assay type: cell-based, mouse
Experimental: To gain insight into the role of SIRT1 in Treg biology, SIRT1 protein expression during ex vivo Treg differentiation was analyzed. Naïve CD4^+ T cells (CD4+CD25-CD69-CD44-) were isolated from mouse spleen and lymph nodes and were activated by anti-CD3/CD28 antibodies alone or in combination with cytokines driving differentiation into T helper (Th) 1, Th2 or induced Treg (iTreg) cells. While SIRT1 expression was increased upon CD3/CD28 activation, it was decreased after T cell differentiation, most noticeably in iTregs (FIG. 9A, lane 5).
To test whether SIRT1 plays a role in iTreg differentiation, SIRT1 was overexpressed during iTreg differentiation. Activated CD4+ cells were infected with bicistronic retroviral vectors expressing SIRT1 and the Thy1.1 surface marker (MSCV-SIRT1-Thy1.1) or a control vector expressing Thy1.1 alone (MSCV-Thy1.1). Cell were further differentiated into Tregs in the presence of recombinant human TGF-β and recombinant human IL-2 as previously described (Fu et al., 2004). After 3 days, cells were stained for surface Thy1.1 and intracellular FoxP3 and analyzed by flow cytometry. […] Cells were cultured 3 more days in IL-2 alone and were reanalyzed at day 6 after infection. Both, the number of FoxP3^+/Thy1.1^+ cells and FoxP3 MFI were decreased in SIRT1-expressing cells (FIG. 9B). The opposite result was observed when SIRT1 was knocked down during iTreg differentiation using lentiviral shRNA vectors.
To test the effect of Ex-527 on FoxP3 expression in […] FoxP3-expressing cells, Ex-527 was added to naïve CD4+ T cells undergoing differentiation into iTreg cells. The number of FoxP3-expressing cells increased up to 3-fold in the presence of Ex-527 as compared to cells treated with the drug vehicle alone (FIG. 12A). […]
FIGS. 12A and 12B. […] (B) Flow cytometry of GFP in natural Treg populations isolated from GFP-FoxP3 knock-in mice, in which GFP is expressed as a fusion protein with FoxP3. […] Cells were further cultured with either DMSO or Ex-527 for additional 2 and 7 days and FoxP3 expression was analyzed as in (A). […]

[5] = test system: natural thymus-derived Treg cells; test: Ex vivo expansion of natural Tregs from GFP-Foxp3 knock-in mice, flow cytometry of GFP and western blot; assay type: cell-based, mouse
Experimental: To test the effect of Ex-527 in natural thymus-derived Treg cells, GFP+ cells were isolated from GFP-Foxp3 knock-in mice, in which green fluorescent protein (GFP) is expressed as a fusion protein with FoxP3. Total CD4+ T cells were isolated from spleen and lymph nodes of these mice, and GFP+ T cells were sorted with >95% purity. GFP+ T cells were expanded by anti-CD3/CD28 beads and IL-2 for 5 days when Ex-527 or dimethylsulfoxide (DMSO) was added. Two days later, 75% of cells were GFP-positive regardless whether Ex-527 was added or not; however, the MFI of GFP was increased in Ex-527-treated cells (FIG. 12B, day 7). 7 days later, only 5% of cells remained GFP-positive in control-treated cells versus 45% in Ex-527-treated cultures (FIG. 12B, day 12). In addition, the […] of FoxP3 remained higher in Ex-527-treated cells versus control-treated cells (387 versus 263). […] No FoxP3 expression was detected from either GFP-negative cells or cells expanded in the absence of Ex-527 (FIG. 12B). […] Thus, SIRT1 inhibitors, e.g., Ex-527, can be used to maximize ex vivo or in vivo expansion of Tregs for therapeutic purposes.
FIGS. 12A and 12B. Inhibition of SIRT1 activity by Ex-527 promotes differentiation of iTreg cells and FoxP3 expression in nTreg cells. (A) Intracellular flow cytometry (% FoxP3+ cells and MFI) of FoxP3 in induced Tregs treated during differentiation with Ex-527 (50 μM) or DMSO as control. Shown are averages of three independent experiments (mean±SD). (B) Flow cytometry of GFP in natural Treg populations isolated from GFP-FoxP3 knock-in mice, in which GFP is expressed as a fusion protein with FoxP3. GFP+ nTregs were expanded by α-CD3/CD28 beads and hIL-2 (2000 U/ml) for 5 days. Cells were further cultured with either DMSO or Ex-527 for additional 2 and 7 days and FoxP3 expression was analyzed as in (A). Western blot analysis of FoxP3 in cell lysates from GFP−, GFP+, and GFP+ cultures expanded as described in the presence of DMSO or EX-527.

[6] = 50 μM during iTreg differentiation
[7] = day 7 (two days after addition)

For `O=C(Nc1ccccc1-c1cn2c(CN3CC[C@@H](O)C3)csc2n1)c1ccc2ccccc2c1` [SRT2183], the “IL-2 protein in Tat expressing cells” value ([1]; 5 μM) was “suppressed the production of IL-2 protein”, the “IL-2 protein in control cells” value ([1]; 5 μM) was “slight increase in IL-2 protein” and the “IL-2 protein in control and Tat expressing cells” value ([1]; 0.2 and 1 μM) was “caused increases in IL-2 protein”.

With `CC(/C=C/C(=O)NO)=C\[C@@H](C)C(=O)c1ccc(N(C)C)cc1` [trichostatin A] the “expression of FLAG-AML1/Runx1” value ([2]; 293 T cells) was “increased both FoxP3 and AML1/Runx1 expression”, the FoxP3 protein expression ([2]; 293 T cells) was “increased both FoxP3 and AML1/Runx1 expression” and the “acetylation levels of FoxP3” value [3] was “hyperacetylation”. For the same compound, the “acetylation of AML1/Runx1” value [3] was “increased to the same extent”.

In the case of `NC(=O)C1CCCc2c1[nH]c1ccc(Cl)cc21` (centres unmarked) [Ex-527, 6-chloro-2,3,4,9-tetrahydro-1H-carbazole-1-carboxamide], the “increase of mean fluorescent intensity (MFI) of FoxP3 expression” value [4, 6] is reported as “up to 2 fold”, the “increase of number of FoxP3-expressing cells vs drug vehicle” value [4, 6] is reported as “up to 3 fold” and the “FoxP3 mRNA levels in iTreg cells” value ([4]; during iTreg differentiation) is reported as “no effect”. The “FoxP3 mRNA levels” value ([2]; 293 T cells) was “No effect”, the “expression of K31R mutant FLAG-FoxP3” value ([2]; 293 T cells, 50 μM) was “increased expression of the K31R mutant to comparable levels as the wild type FoxP3 protein” and the “expression of K262/267R double mutant FLAG-FoxP3” value ([2]; 293 T cells, 50 μM) was “could not further increase”. The “increase of expression of K262R and K267R mutant FLAG-FoxP3” value ([2]; 293 T cells, 50 μM) was “less visible”, the “expression of FLAG-AML1/Runx1” value ([2]; 293 T cells) was “unchanged” and the FoxP3 protein expression ([2]; 293 T cells) was “increased FoxP3 protein expression to a similar extent as nicotinamide”. For the same compound, the “wild type FoxP3 protein expression after cycloheximide” value ([2]; 4 h of CHX treatment) was “stabilized FoxP3 protein expression”, the “3KR mutant FoxP3 protein expression after cycloheximide” value ([2]; 4 hour-time point of CHX treatment) was “no further stabilization” and the GFP-positive cells [5, 7] was 75%. For the same compound, the “MFI of GFP” value [5, 7] was “increased”, the “FoxP3 expression by western blot analysis” value ([5]; day 12) was “remained visible” and the “MFI of FoxP3” value ([5]; day 12) was 387. The GFP-positive cells ([5]; day 12 (7 days after addition)) was 45%.
